Results as given in patent US10202385B2, “Use of substituted 2,3-dihydroimidazo[1,2-C]quinazolines” (BAYER INTELLECTUAL PROPERTY GMBH, priority 2011, dated 2019).
Counter-ions that a name gives are not always drawn.

Key:
Assay type in all cases: cell-based
MDA-MB-468 tumor cells [1] = experiment: Tumor cell proliferation assay in MDA-MB-468 cells; conditions: PTEN null, EGFR high, Bcl-2 negative MDA-MB-468
Description: In accordance with the invention, the compound were assessed in a cell-based assay that measures the capacity of the compounds to inhibit tumor cell proliferation following a 72-hour drug exposure. Cell viability was conducted by Invitrogen (breast Oncopanel, Invitrogen, USA), or was determined using CellTiter-Glo® Luminescent Cell Viability Assay (Promega) as follows. Cells were plated at 300-5000 cells/well depending on the cell lines or microtiter plates (96- or 384-well) in 100 μL growth medium in 96-well and 20 μL growth medium in 384-well microtiterplate. For each cell line assayed, cells were plated onto a separate plate for determination of luminescence at t=0 hour and t=72 hour time points. Following overnight incubation at 37° C., luminescence values for the t=0 samples were determined. […] Luminescence values for the t=72 hour samples were determined. For data analysis, briefly, t=0 values were subtracted from those determined for the t=72 hour time points, for both the treated and untreated samples. Percent differences in luminescence between drug-treated and control values were used to determine the percent inhibition of growth.
The combination effects of PI3K inhibitors and other agent were evaluated using combination index isobologram analysis (Chou et al. Pharmacology Reviews 2006). […]

MDA-MB-468 tumor cells [2] = experiment: Apoptosis induction (PARP cleavage) in MDA-MB-468 cells; conditions: PTEN null, EGFR high, Bcl-2 negative MDA-MB-468
Description: (§1) Tumor cells were seeded in 384-well plates at a concentration of 1000-2500 cells/well/25 μL depending on cell lines. After overnight incubation, cells were treated with compounds (5 μL). Then, Caspase 3/7 activities were determined at 24 to 48 hours post-treatment using Caspase-Glo3/7 assay kits (Promega Cat # G8212).
The cellular expression of the mTORC2 component Rictor was assessed by western blot analysis (A). Induction of PARP cleavage by compound A treatment in combination with inhibition of mTORC1 or mTORC2 (B). shControl and shRictor MDA-MB468 cells were treated with indicated agents for 48 hours, and cleavage of PARP was analyzed. GAPDH was used as an internal protein control.

T47D cells [3] = experiment: 72-hour tumor cell proliferation assay in T47D cells; conditions: T47D (PIK3CA mut)
Description: In accordance with the invention, the compound were assessed in a cell-based assay that measures the capacity of the compounds to inhibit tumor cell proliferation following a 72-hour drug exposure. Cell viability was conducted by Invitrogen (breast Oncopanel, Invitrogen, USA), or was determined using CellTiter-Glo® Luminescent Cell Viability Assay (Promega) as follows. Cells were plated at 300-5000 cells/well depending on the cell lines or microtiter plates (96- or 384-well) in 100 μL growth medium in 96-well and 20 μL growth medium in 384-well microtiterplate. For each cell line assayed, cells were plated onto a separate plate for determination of luminescence at t=0 hour and t=72 hour time points. Following overnight incubation at 37° C., luminescence values for the t=0 samples were determined. Dose plates for the t=72 hour time points were treated with compounds diluted into growth medium. Cells were then incubated for 72 hours at 37° C. Luminescence values for the t=72 hour samples were determined. For data analysis, briefly, t=0 values were subtracted from those determined for the t=72 hour time points, for both the treated and untreated samples. Percent differences in luminescence between drug-treated and control values were used to determine the percent inhibition of growth. […]

breast tumor cell lines = experiment: 72-hour tumor cell proliferation assay, molecular profiling in 24 breast tumor cell lines
Description: In accordance with the invention, the compound were assessed in a cell-based assay that measures the capacity of the compounds to inhibit tumor cell proliferation following a 72-hour drug exposure. Cell viability was conducted by Invitrogen (breast Oncopanel, Invitrogen, USA), or was determined using CellTiter-Glo® Luminescent Cell Viability Assay (Promega) as follows. Cells were plated at 300-5000 cells/well depending on the cell lines or microtiter plates (96- or 384-well) in 100 μL growth medium in 96-well and 20 μL growth medium in 384-well microtiterplate. For each cell line assayed, cells were plated onto a separate plate for determination of luminescence at t=0 hour and t=72 hour time points. Following overnight incubation at 37° C., luminescence values for the t=0 samples were determined. Dose plates for the t=72 hour time points were treated with compounds diluted into growth medium. Cells were then incubated for 72 hours at 37° C. Luminescence values for the t=72 hour samples were determined. For data analysis, briefly, t=0 values were subtracted from those determined for the t=72 hour time points, for both the treated and untreated samples. Percent differences in luminescence between drug-treated and control values were used to determine the percent inhibition of growth.
Using a set of breast cancer cell lines representing differential receptor expression status and genetic alterations of PIK3CA and PTEN, the anti-proliferative and apoptotic effects of Compound A were investigated.

T47D cells [4] = experiment: Apoptosis induction (PARP cleavage, Caspase-Glo 3/7) in T47D cells
Description: as §1
The combination effects of PI3K inhibitors and other agent were evaluated using combination index isobologram analysis (Chou et al. Pharmacology Reviews 2006). The efficacy parameters were the median effect in a 72-hour cell proliferation assay and the 24- or 48-hour Caspase 3/7 activity assay described above. Briefly, cells were plated in 384-well plate with 25 μl medium. […] The corresponding component doses of D1 and D2 at the E(I)C50/E(I)C90 were calculated and used for plotting isobolograms. The multiple drug effect was analyzed as described by Chou et al. (Pharmacology Reviews 2006) and the combination index was calculated using the formula: Combination Index=[D1x]/D1′+[D2x]/D2′ where D1x and D2x refer to the Drug 1 and Drug 2 concentration at EC50/IC50 or EC90/IC90, respectively, in combination; and D1′ and D2′ refer to the EC50/IC50 or EC90/IC90 values of D1 and D2, respectively, as single agents. […]

[5] = tested on: breast tumor cells (BT-20, BT-474, KPL-4); experiment: Apoptosis induction (PARP cleavage, Caspase 3/7) in breast tumor cells
Description: as §1

SMILES | inhibition of proliferation (MDA-MB-468 tumor cells [1]) | induction of apoptosis (MDA-MB-468 tumor cells [2]) | anti-proliferative activity IC50 (T47D cells [3]) | IC50 (breast tumor cell lines; breast tumor cells with HER2 expression, n=8 cell lines, proliferation) [nM] | IC50 (breast tumor cell lines; breast tumor cells with PIK3CA mutation, n=7 cell lines, proliferation) [nM] | IC50 (breast tumor cell lines; wild type PIK3CA and HER2 negative breast cancer cells, n=12, proliferation) [nM] | apoptosis induction (T47D cells [4]; T47D (PIK3CA mut), high level of Bcl-2) | apoptosis induction ([5]; PIK3CA mutant and or HER2 positive breast tumor cells (such as BT20, BT474)) | inducing apoptosis ([5]; breast cancer cells expressing HER2 and/or PIK3CA mutation in the absence of Bcl-2 (conclusion)) | apoptosis after exposure ([5]; tumor cells that lack Bcl-2 expression (KPL-4, BT-474, BT-20)) | sensitization to apoptosis in combination with Compound A (T47D cells [4]; T47D cells, ABT-737 combined with Compound A)
COc1c(OCCCN2CCOCC2)ccc2c1N=C(NC(=O)c1cnc(N)nc1)N1CCN=C21 [Compound A, 2-amino-N-[7-methoxy-8-(3-morpholin-4-ylpropoxy)-2,3-dihydroimidazo[1,2-c]quinazolin-5-yl]pyrimidine-5-carboxamide dihydrochloride] | insensitive | resistant | single-digit | 19 | 17 | 773 | resistant to apoptosis | strong activity | extremely effective | immediately underwent apoptosis | 
CN(C)CC[C@H](CSc1ccccc1)Nc1ccc(S(=O)(=O)NC(=O)c2ccc(N3CCN(Cc4ccccc4-c4ccc(Cl)cc4)CC3)cc2)cc1[N+](=O)[O-] [ABT-737, reference compound] |  |  |  |  |  |  |  |  |  |  | sensitized T47D cells to apoptosis
